Assay results: PMC12142043, “Cell-based high-content approach for SARS-CoV-2 neutralization identifies unique monoclonal antibodies and PI3K pathway inhibitors” (Frontiers in Cell and Developmental Biology, 2025)
Where two headings read alike, the source gives them in different places.

System: SARS-CoV-2 (USA-WA1/2020) in Calu-3 cells
Type: cell-based
[1] = high dose (10 µM), Calu-3, 48 h
[2] = low dose (100 nM), Calu-3, 48 h

SMILES	dsRNA signal, AU High [1]	dsRNA signal, AU Low [2]	dsRNA signal, AU High	dsRNA signal, AU Low
COC(=O)Nc1nc2ccc([S+]([O-])c3ccccc3)cc2[nH]1 (centres unmarked) [Oxfendazole]	20012.9 AU	47370.5 AU		
COc1cccc(-c2cc(=O)c3ccccc3o2)c1N [PD98059]	33353.3 AU	27955.5 AU		
COc1cc2ncnc(Nc3cccc(Br)c3)c2cc1OC.Cl [PD153035 hydrochloride]	1669.4 AU	28866.3 AU		
O=C(NOCC1CC1)c1ccc(F)c(F)c1Nc1ccc(I)cc1Cl [PD184352 (CI-1040)]	0.0 AU	41067.4 AU		
O=C(NOCC(O)CO)c1cc(Br)c(F)c(F)c1Nc1ccc(I)cc1F (centres unmarked) [PD318088]	9157.7 AU	11553.5 AU		
O=C(NOC[C@H](O)CO)c1ccc(F)c(F)c1Nc1ccc(I)cc1F [PD0325901]	5022.8 AU	48059.9 AU		
O=[N+]([O-])c1ccc(-c2nc(-c3ccncc3)c(-c3ccc(F)cc3)[nH]2)cc1 [PD 169316]	4123.0 AU	13218.6 AU		
CCN(CC)CCCCNc1ncc2cc(-c3cc(OC)cc(OC)c3)c(NC(=O)NC(C)(C)C)nc2n1 [PD 173074]	6568.6 AU	3359.6 AU		
Cc1cc(CS(=O)(=O)c2ccccc2)cc(OCc2ccc(CN3CCC[C@@H]3CO)cc2)c1 [PF-543]	28127.6 AU	66805.4 AU		
Cn1cc(-c2[nH]c3cc(NC(=O)[C@H](N)C4CCCCC4)cc4c3c2C=NNC4=O)cn1 [PF-477736]	45938.3 AU	24364.8 AU		
CN(c1ncccc1CNc1nc(Nc2ccc3c(c2)CC(=O)N3)ncc1C(F)(F)F)S(C)(=O)=O [PF-562271]	0.0 AU	690.0 AU		
Nc1nccc(-c2c(-c3ccc(F)cc3)ncn2C2CCCCC2)n1 [PF-670462]	1350.7 AU	18716.0 AU		
OCCn1cc(-c2cnc3nnn(Cc4ccc5ncccc5c4)c3n2)cn1 [PF-04217903]	9610.7 AU	2049.9 AU		
N#Cc1cccc(-c2c[nH]c3ncnc(N4CCOCC4)c23)c1 [PF-06447475]	53174.2 AU	40604.3 AU		
CNC(=O)c1ccc(C)c(-n2c(C)cc(OCc3ccc(F)cc3F)c(Br)c2=O)c1 [PH-797804]	733.9 AU	57938.0 AU		
Cc1[nH]c(/C=C2\C(=O)Nc3ccc(S(=O)(=O)Cc4c(Cl)cccc4Cl)cc32)c(C)c1C(=O)N1CCC[C@@H]1CN1CCCC1 [PHA-665752]	34815.2 AU	11571.8 AU		
Oc1cccc(-c2nc(N3CCOCC3)c3oc4ncccc4c3n2)c1 [PI-103]	0.0 AU	40731.1 AU		
Fc1ccc2[nH]ccc2c1-c1nc(N2CCOCC2)c2sc(CN3CCN(CC4CC4)CC3)cc2n1 [PI-3065]	625.6 AU	44145.1 AU		
Cc1ccc([N+](=O)[O-])cc1S(=O)(=O)N(C)/N=C/c1cnc2ccc(Br)cn12 [PIK-75]	6934.4 AU	3754.5 AU		
FC(F)(F)c1ccc(CNc2ccc(Cc3c[nH]c4ncccc34)cn2)cc1 [PLX647]	24285.0 AU	52941.2 AU		
CC(C)n1nc(-c2cc3cc(O)ccc3[nH]2)c2c(N)ncnc21 [PP242]	7321.2 AU	32614.7 AU		
CC(C)(C)n1nc(-c2ccc(Cl)cc2)c2c(N)ncnc21 [PP 2 (AG 1879)]	53589.5 AU	40414.9 AU		
CCOC(=O)c1ccc(N2NC(=O)/C(=C/c3ccc([N+](=O)[O-])o3)C2=O)cc1 [PYR-41]	41809.3 AU	6659.6 AU		
COc1ccc(COc2cc3oc(=O)c4cc(C(C)O)ccc4c3cc2OC)cc1 (centres unmarked) [Palomid 529]	5778.6 AU	4358.2 AU		
Cc1ccc(Nc2nccc(N(C)c3ccc4c(C)n(C)nc4c3)n2)cc1S(N)(=O)=O [Pazopanib (GW-786034)]	41143.8 AU	22671.3 AU		
FC(F)(F)c1ccc(CNc2ccc(Cc3c[nH]c4ncc(Cl)cc34)cn2)cn1 [Pexidartinib (PLX3397)]	64762.3 AU	40586.0 AU		
Oc1cc(O)cc(/C=C/c2ccc(O)c(O)c2)c1 [Piceatannol]	12025.1 AU	48262.2 AU		
O=C(NC[C@H](O)CO)c1ccncc1Nc1ccc(I)cc1F [Pimasertib (AS-703026)]	11387.3 AU	3667.2 AU		

SMILES	dsRNA signal, AU High [1]	dsRNA signal, AU Low [2]	dsRNA signal, AU High	dsRNA signal, AU Low
O=C(O)C[C@H](O)C[C@H](O)/C=C/c1c(C2CC2)nc2ccccc2c1-c1ccc(F)cc1 [Pitavastatin Calcium]	16024.1 AU	23195.0 AU		
O=C(O)C[C@H](O)C[C@H](O)/C=C/c1c(C2CC2)nc2ccccc2c1-c1ccc(F)cc1 [Pitavastatin]	8150.8 AU	10215.5 AU		
CC1=CC(=O)C(C(C)C)=C/C1=N/OC(=O)c1ccccc1C [Poloxin]	3268.7 AU	59035.4 AU		
C=CC(=O)N1CCC(Oc2cc3c(Nc4ccc(Cl)c(Cl)c4F)ncnc3cc2OC)CC1 [Poziotinib]	19439.7 AU	63934.7 AU		
CC(C)[C@H](CO)Nc1nc(Nc2cccc(Cl)c2)c2ncn(C(C)C)c2n1 [Purvalanol A]	51443.1 AU	865.0 AU		
CC(C)[C@H](CO)Nc1nc(Nc2ccc(C(=O)O)c(Cl)c2)c2ncn(C(C)C)c2n1 [Purvalanol B]	4137.6 AU	7805.6 AU		
O=c1c(O)c(-c2ccc(O)c(O)c2)oc2cc(O)cc(O)c12 [Quercetin dihydrate]	25411.6 AU	6435.1 AU		
CC(C)(C)c1cc(NC(=O)Nc2ccc(-c3cn4c(n3)sc3cc(OCCN5CCOCC5)ccc34)cc2)no1 [Quizartinib (AC220)]	4499.9 AU	17036.5 AU		
COc1cc(Nc2ncc(F)c(Nc3ccc4c(n3)NC(=O)C(C)(C)O4)n2)cc(OC)c1OC [R406 (free base)]	42129.8 AU	55638.2 AU		
COc1ccc(/C=C(\C#N)c2cccnc2)cc1OC [RG 13022]	36154.5 AU	2414.3 AU		
O=C(NCc1cccc(O)c1)Nc1nc(-c2ccncc2)cs1 [RKI-1447]	1722.0 AU	7250.9 AU		
CN1CCN(c2ccc(Nc3cc(-c4cccc(-n5ccc6cc(C7CC7)cc(F)c6c5=O)c4CO)cn(C)c3=O)nc2)CC1 [RN486]	3432.0 AU	25024.9 AU		
Cc1cn(-c2cc(NC(=O)c3ccc(C)c(Nc4nccc(-c5cnccn5)n4)c3)cc(C(F)(F)F)c2)cn1 [Radotinib(IY-5511)]	11726.8 AU	29413.0 AU		
CO[C@H]1C[C@@H]2CC[C@@H](C)[C@@](O)(O2)C(=O)C(=O)N2CCCC[C@H]2C(=O)O[C@H]([C@H](C)C[C@@H]2CC[C@@H](O)[C@H](OC)C2)CC(=O)[C@H](C)/C=C(\C)[C@@H](O)[C@@H](OC)C(=O)[C@H](C)C[C@H](C)/C=C/C=C/C=C/1C [Rapamycin (Sirolimus)]	1745.1 AU	58744.6 AU		
CNC(=O)c1cc(Oc2ccc(NC(=O)Nc3ccc(Cl)c(C(F)(F)F)c3)c(F)c2)ccn1.Cl [Regorafenib hydrochloride]	724.9 AU	22021.0 AU		
CNC(=O)c1cc(Oc2ccc(NC(=O)Nc3ccc(Cl)c(C(F)(F)F)c3)c(F)c2)ccn1 [Regorafenib]	93.0 AU	63322.3 AU		
Oc1ccc(/C=C/c2cc(O)cc(O)c2)cc1 [Resveratrol]	13503.5 AU	6902.6 AU		
c1nc2nc(Nc3ccc(N4CCOCC4)cc3)nc(NC3CCCCC3)c2[nH]1 [Reversine]			27234.6	49415.3
CO[C@H]1C[C@@H]2CC[C@@H](C)[C@@](O)(O2)C(=O)C(=O)N2CCCC[C@H]2C(=O)O[C@H]([C@H](C)C[C@@H]2CC[C@@H](OP(C)(C)=O)[C@H](OC)C2)CC(=O)[C@H](C)/C=C(\C)[C@@H](O)[C@@H](OC)C(=O)[C@H](C)C[C@H](C)/C=C/C=C/C=C/1C [Ridaforolimus (Deforolimus, MK-8669)]	23072.2 AU	31512.5 AU		
COc1cc(OC)c(/C=C/S(=O)(=O)Cc2ccc(OC)c(NCC(=O)O)c2)c(OC)c1 [Rigosertib (ON-01910,Estybon)]	14175.0 AU	4849.9 AU		
O=C1NC(=NCc2cccs2)S/C1=C\c1ccc2ncccc2c1 [Ro 3306]	2807.1 AU	25048.4 AU		
O=C(/C=C/c1ccc(O)c(O)c1)O[C@H](Cc1ccc(O)c(O)c1)C(=O)O [Rosmarinic acid]	3864.4 AU	42457.9 AU		
C[C@@H]1COCCN1c1cc(=O)n2c(n1)N(Cc1cncc(Cl)c1)[C@H](C(F)(F)F)CC2 [SAR405]	1587.9 AU	23454.9 AU		
CCn1c(N)c(C(=O)NC)c(=O)c2ccc(C#C[C@@](C)(O)COC)nc21 [SAR131675]	44218.5 AU	34484.3 AU		
CN1C/C=C/CCOc2cccc(c2)-c2ccnc(n2)Nc2cccc(c2)C1 [SB1317]	1210.9 AU	26680.2 AU		
Oc1ccc(-c2nc(-c3ccc(F)cc3)c(-c3ccncc3)[nH]2)cc1 [SB202190 (FHPI)]	29217.1 AU	9508.1 AU		
Cc1cccc(-c2[nH]c(C(C)(C)C)nc2-c2ccc3nccnc3c2)n1 [SB525334]	34680.3 AU	27941.4 AU		
